From patent publication EP1721613A1, “Hesperidin for the treatment of epilepsy, migraine, schizophrenia, depression and drug abuse” (priority 2005, dated 2006)
Entries after “also recorded” stand apart in the source; their conditions may differ.

Tests used:
Fischer-344 Ratten = experiment: Tele-Stereo-EEG (changes of EEG frequencies in freely moving rats); assay type: in vivo, Ratte
Procedure: Die Veränderungen der EEG-Frequenzen nach intraperitonealer Gabe von Salzlösung (Kontrolle) bzw. verschiedener Dosen von Hesperidin (10 bis 300 mg/kg Körpergewicht sowie oral 500 mg/kg) wurden bestimmt. Ebenso wurden verschiedene Dosierungen von Hesperetin (80-320 mg/kg i.p. sowie 500 mg/kg oral untersucht.
Die Untersuchungen wurden analog der durch W. Dimpfel beschriebenen Methode (Dimpfel W Preclinical data base of pharmaco-specific rat EEG fingerprints (Tele-Stereo-EEG). Eur J Med Res (2003) 8: 199-207) folgendermaßen durchgeführt: Zwölf männlichen erwachsenen Fischer-344 Ratten (Tag-Nacht konvertiert) wurden im Alter von 6 Monaten 4 bipolar konzentrische Elektroden zusammen mit einem Mikrostecker auf einer gemeinsamen Basisplatte implantiert. Der Stecker diente der Aufnahme eines 4-Kanal-Senders zur telemetrischen Übertragung der aus frontalem Kortex, Hippokampus, Striatum und Formatio Reticularis abgeleiteten Feldpotentiale. Die Signale wurden auf einem Computer System (Software "EEG-Analyse", Betriebssystem OS Science, Laborrechner "LabTeam" der Firma MediSyst, Linden, DE) in Echtzeit einer Fast-Fourier-Transformation unterworfen und die Leistungsdichtespektren jeweils über 60 Minuten gemittelt. Die Unterteilung der Spektren in 6 verschiedene Frequenzbereiche erlaubte die Erfassung pharmako-spezifischer Veränderungen in Bezug auf die jeweils vor Applikation gemessenen Vorwerre innerhalb dieser Frequenzbänder.
Zum Applikationsprotokoll der Substanzen: die Substanzen wurden i.p. 45 Minuten nach Beginn der Messungen (Vorwert) injiziert. Fünf Minuten später wurden die Messungen wieder gestartet, mindestens über die nächsten 5 Stunden kontinuierlich analysiert und in 60-minütigen Perioden zusammengefaßt. Die Testsubstanzen wurden in einer Dosierung von 10 bis 500 mg/kg appliziert. Die experimentelle Serie wurde mit der Injektion von Salzlösung (Kontrolle), die zu keiner auffälligen Änderung führte, begonnen.
Der statistische Vergleich der Versuche zu den Ergebnissen, die nach Gabe von Salzlösung gemessen wurde, erfolgte mit Hilfe einer multivariaten Analyse nach Ahrens und Läuter (siehe H. Ahrens, J. Läuter "Mehrdimensionale Varianzanalyse" (1974), Akademie Verlag, Berlin) auf der Basis der Veränderungen innerhalb der einzelnen Frequenzbänder in allen Hirnregionen als Variablen.

[1] = test system: Pyramidenzellen im Hippokampus-Schnittpräparat; experiment: Hippocampal slice in vitro: antagonism of the 4-aminopyridine-induced change of excitability; assay type: cell-based, Ratte; conditions: superfused together with 4-Aminopyridin
Excerpt: (§1) Wirkungen von Hesperidin und Hesperetin auf die Erregbarkeit der Pyramidenzellen wurden im Hippokampus-Schnittpräparat der Ratte bestimmt. Die Analyse der Wirkungen erfolgte auf drei Ebenen. Zunächst wurde anhand der Applikation von Einzelreizen die normale Erregbarkeit überprüft und anschließend nach einer sog. "Theta-burst-Stimulation" die Auswirkungen auf die Langzeitpotenzierung gemessen. Im nächsten Schritt wurde versucht, die Wirkung von Krampf auslösenden Substanzen zu antagonisieren. In einer dritten Versuchsserie wurde die Substanz eine Woche lang appliziert und dann "ex vivo" die Änderung der Erregbarkeit auf eine Provokation mit der Krampf auslösenden Substanz 3-Aminopyridin (3-AP) gemessen.
(§2) Für die Durchführung dieser Studien wurden 30 erwachsene männliche CD-Ratten verwendet. Die Isolation des Hippokampus erfolgte an äthemarkotisierten und anschließend exsanguinierten Tieren.
Das Experiment selbst wurde in einer sog. "Base Unit" mit Haas Top" (Firma Medical Systems Corp., USA) bei 35 Grad Celsius durchgeführt. Der mit Hilfe peristaltischer Pumpen (Infusomat B. Braun Melsungen AG) superfundierte Hippokampus-Schnitt lag auf einem Stück Gaze. Eingeleitetes Carbogen hielt die erforderliche Sauerstoffzufuhr der Lösung aufrecht. Die Durchflussgeschwindigkeit betrug 200 ml/h. […]

[2] = test system: Pyramidenzellen des Hippokampus; experiment: Hippocampal slice ex vivo after 7 days of in vivo dosing: provocation with 4-aminopyridine; design: species or system Ratte; conditions: 500 mg/kg daily over 7 days in vivo, compared with placebo
Excerpt: Wirkungen von Hesperidin und Hesperetin auf die Erregbarkeit der Pyramidenzellen wurden im Hippokampus-Schnittpräparat der Ratte bestimmt. Die Analyse der Wirkungen erfolgte auf drei Ebenen. Zunächst wurde anhand der Applikation von Einzelreizen die normale Erregbarkeit überprüft und anschließend nach einer sog. "Theta-burst-Stimulation" die Auswirkungen auf die Langzeitpotenzierung gemessen. Im nächsten Schritt wurde versucht, die Wirkung von Krampf auslösenden Substanzen zu antagonisieren. […]
Dieselbe Versuchsanordnung wurde letztendlich noch einmal nach in vivo Applikation beider Substanzen in einer repetitiven Dosierung von 500 mg/kg täglich über 7 Tage im Vergleich zu Placebo angewandt (sog. "ex vivo" Design). Dabei sollte überprüft werden, ob eine repetitive Gabe zur Erregbarkeitsveränderungen der Pyramidenzellen des Hippokampus führt. […] Dieses Ergebnis ist auch ein Hinweis darauf, dass in vivo neben dem im Darm entstehenden Hesperetin auch genügend wirksames Hesperidin das Gehim erreicht. Gleichzeitig wird dadurch nochmals bestätigt, dass Hesperidin und Hesperetin ein unterschiedliches Wirkprofil haben.

[3] = test system: Pyramidenzellen im Hippokampus-Schnittpräparat; experiment: Hippocampal slice in vitro: population spike after single stimuli and long-term potentiation after theta-burst stimulation; assay type: cell-based, Ratte; conditions: n=6 slices; for Langzeitpotenzierung durch TBS: theta-burst stimulation, 5 bis 60 µM for Hesperidin
Excerpt: as §1, §2
Das Experiment selbst wurde in einer sog. "Base Unit" mit Haas Top" (Firma Medical Systems Corp., USA) bei 35 Grad Celsius durchgeführt. Der mit Hilfe peristaltischer Pumpen (Infusomat B. Braun Melsungen AG) superfundierte Hippokampus-Schnitt lag auf einem Stück Gaze. Eingeleitetes Carbogen hielt die erforderliche Sauerstoffzufuhr der Lösung aufrecht. Die Durchflussgeschwindigkeit betrug 200 ml/h.
Die Stimulation der CA2-Region (Schaffer-Kollateralen) erfolgte unter Verwendung eines Reizgenerators (Laborcomputer Labteam der Fa. MediSyst GmbH, Linden, DE) über eine Isoliereinheit mit Hilfe einer bipolar konzentrischen Stahlelektrode (Rhodes Medical Systems, USA. Die Impulsbreite betrug 200 µs, die Stromstärke konstant 200 µA. Der Reizgenerator löste im Abstand von jeweils 20 Sekunden 4 Einzelreizungen aus, die im Schnitt insgesamt 4 Populationsspikes evozierten. Die Ableitung der Antwort erfolgte in der […] Region. Das System mittelte die Reizantwort der 4 Spike-Amplituden.
Dabei wurde der Schnitt zunächst mit Kontrolllösung superfundiert. […]

[4] = test system: autosomaler dominanter nocturner Frontallappenepilepsie; experiment: Therapeutic trial in one patient with drug-resistant epilepsy; assay type: in vivo, Patientin
Excerpt: Um das Konzept auch am Patienten zu überprüfen, wurde einer jungen unter autosomaler dominanter nocturner Frontallappenepilepsie leidenden Patientin, die selbst in Gegenwart von 3 Gramm unterschiedlicher Antiepileptika weiterkrampfte (im Mittel 20 Anfälle pro Monat) täglich 1 Gramm Hesperidin abends vor dem Einschlafen oral über einen Zeitraum von 2 Monaten verabreicht. […] Das Ergebnis der Untersuchungen ist in Abb. 12 dokumentiert.

COc1ccc([C@@H]2CC(=O)c3c(O)cc(O)cc3O2)cc1O [Hesperetin]
Veränderungen der elektrischen Hirnaktivität (Fischer-344 Ratten; 320 mg/kg i.p., after 2 hours, frontal cortex): Zunahmen der delta und alpha2 Aktivität
EEG-Muster im Vergleich zu Referenzmedikamenten (Diskriminanzanalyse) (Fischer-344 Ratten; higher dose): dem klassischer Antikonvulsiva ähnlich
Veränderungen der elektrischen Hirnaktivität (Fischer-344 Ratten; i.p. single dose, low dose range): im niedrigen Dosisbereich dem nach Gabe von Hesperidin entsprach
EEG-Muster im Vergleich zu Referenzmedikamenten (Diskriminanzanalyse) (Fischer-344 Ratten; low doses): wie es für die Applikation von Mitteln gegen Migräne und Schizophrenie (Metoprolol bzw. Haloperidol und Risperidon) typisch ist
Änderung der Erregbarkeit der Pyramidenzellen durch die Gegenwart von 4-Aminopyridin [1]: nicht jedoch von Hesperetin vermindert
durch 4-Aminopyridin provozierte Erhöhung der Erregbarkeit (ex vivo) [2]: nicht jedoch in den mit Placebo oder Hesperetin behandelten Tieren

COc1ccc([C@@H]2CC(=O)c3c(O)cc(O[C@@H]4O[C@H](CO[C@@H]5O[C@@H](C)[C@H](O)[C@@H](O)[C@H]5O)[C@@H](O)[C@H](O)[C@H]4O)cc3O2)cc1O [Hesperidin, Hesperetin 7-rhamnoglucosid]
Veränderungen der Leistungsdichte in den einzelnen Hirnregionen (Fischer-344 Ratten; 20 mg/kg i.p.): Zunahmen der alpha1 und beta Aktivität
Veränderungen der Leistungsdichte in den einzelnen Hirnregionen (Fischer-344 Ratten; 40 mg/kg i.p.): Zunahmen der elektrischen Leistung im alpha1 und beta Bereich
Veränderungen der Leistungsdichte in den einzelnen Hirnregionen (Fischer-344 Ratten; 300 mg/kg i.p., significant at least at P < 5%): generellen Abfall der elektrischen Leistung
Veränderungen der Leistungsdichte in den einzelnen Hirnregionen (Fischer-344 Ratten; 80 und 160 mg/kg i.p., statistically significant pattern, seen over the 5 hours of the test): Abnahmen der elektrischen Leistung im delta, theta und alpha2 Bereich
EEG-Muster im Vergleich zu Referenzmedikamenten (Diskriminanzanalyse) (Fischer-344 Ratten; higher dose): dem nach Gabe klassischer Antidepressiva
EEG-Muster im Vergleich zu Referenzmedikamenten (Diskriminanzanalyse) (Fischer-344 Ratten; low doses): wie es für die Applikation von Mitteln gegen Migräne und Schizophrenie (Metoprolol bzw. Haloperidol und Risperidon) typisch ist
Amplitude des Populationsspikes bei Einzelreizung ([3]; single stimuli, 5 bis 60 µM): Unterdrückung der Pyramidenzellaktivität nach Einzelreizung; also recorded: Konzentrations-abhängigen Abfall der Amplitude des Populationsspikes
Langzeitpotenzierung durch TBS [3]: Unterdrückung der Langzeitpotenzierung; also recorded: Konzentrations-abhängig unterdrückt
Änderung der Erregbarkeit der Pyramidenzellen durch die Gegenwart von 4-Aminopyridin [1]: vermindert
durch 4-Aminopyridin provozierte Erhöhung der Erregbarkeit (ex vivo) [2]: Unterdrückung der durch 4-Aminopyridin provozierten Erhöhung
Ausprägung des alpha1 Fokus im Frontallappen (Nachuntersuchung) ([4]; 1 Gramm daily orally for 2 months): deutlich geringere Ausprägung des alphal Fokus im Frontallappen
Häufigkeit der Anfälle ([4]; 1 Gramm daily orally in the evening for 2 months, baseline on average 20 seizures per month under 3 g antiepileptics): um die Hälfte reduziert

Fc1ccc([C@@H]2CCNC[C@H]2COc2ccc3c(c2)OCO3)cc1 [Paroxetin, reference compound]
Langzeitpotenzierung durch TBS [3]: unterdrückt die Langzeitpotenzierung
